{
  "source": "patent US20200338112A1",
  "about": "“METHODS AND MATERIALS FOR TREATING CANCER” (Mayo Foundation for Medical Education and Research, priority 2018, published 2020)",
  "key": {"[1]": {"tested_on": "NBS1 protein level in MDA-MB-231 cells", "assay": "Western blot of NBS1 protein level after MG132 treatment", "type": "cell-based", "conditions": "MG132 10 μM for six hours; PD-L1 depleted MDA-MB-231 cells; FIG. 3c", "method": "FIGS. 3a and 3b contain western blot analyses of BRCA1, NBS1, RAD50, MRE11, and PD-L1 in HCT116 and MDA-MB-231 cells, respectively, that were infected with lentiviral control shRNA or two different shRNAs targeting PD-L1. GAPDH was used as a loading control. FIG. 3c contains a western blot of NBS1 protein levels in MDA-MB-231 cells infected with lentivirus control shRNA or two different shRNAs targeting PD-L1 were treated with DMSO (control) or MG132 (10 μM) for six hours before proteins were harvested. GAPDH and p53 were used as loading and positive control, respectively. […] GAPDH was used for normalization. FIGS. 3e, 3f, and 3g assess HCT116 cells treated with the transcription inhibitor actinomycin D (5 μg/mL). NBS1 mRNA levels were quantified using RT-PCR. Knockdown of PD-L1 in HCT116 decreased the half-life of NBS1 and BRCA1 mRNA, while restoring PD-L1 in the knockdown cells rescued the phenotype (±s.e.m., n=3). GAPDH was used for normalization. […] The change of NBS1 and BRCA1 mRNA level was not due to transcription, since the transcription of BRCA1 was not changed, while the transcription of NBS1 was even increased after PD-L1 was knocked down (±s.e.m., n=3). GAPDH was used for normalization. FIG. 3i contains representative pictures of the subcellular localization of PD-L1. The immunofluorescence was performed in HCT116 cells. […]"}, "cells": {"tested_on": "cells", "assay": "Colony formation of cells pretreated with durvalumab, then IR", "type": "cell-based", "conditions": "durvalumab 10 μg/mL, 24 hours before IR, FIG. 1f", "method": "FIG. 1a contains colony formation experiments of HCT116 cells under either ionizing radiation (IR) (0, 2, 4 Gy) or cisplatin (0, 0.5, 1 and 2 μM) treatment. […] FIG. 1b contains knockdown and overexpression efficiency validation of PD-L1 in HCT116 using western blot; glyceraldehyde 3-phosphate dehydrogenase (GAPDH) was used as a loading control. […] The formation of rH2AX foci was sustained in PD-L1 depletion group compared to control group, data is represented as mean±s.e.m for each view. FIG. 1e contains an assessment of wild-type (+/+, n=16), PD-L1 heterozygous (+/−, n=24), and PD-L1 knockout (−/−, n=16) BALB/C mice that were exposed to whole body irradiation (7 Gy). Comparisons between groups were made using the Log-rank test. […] Result were based upon colony formation (±s.e.m., n=3)."}},
  "note": "“Also recorded” adds a separate entry of the source. Where a SMILES comes first, the peptide text is derived from it. The star is where a group is joined. Cbz = O=C(OCc1ccccc1)*",
  "data": [
    {"compound": "CC(C)C[C@@H](C=O)NC(=O)[C@H](CC(C)C)NC(=O)[C@H](CC(C)C)NC(=O)OCc1ccccc1", "note": "[MG132] (Cbz-Leu-Leu-Leu-aldehyde)", "values": [
      {"measurement": "recovery of NBS1 protein level in PD-L1 depleted cells", "setting": "[1]", "result": "did not recover"}
    ]},
    {"compound": "durvalumab", "values": [
      {"measurement": "sensitization of cells to IR (DNA damage stimulation)", "setting": "cells", "result": "did not sensitize cells to DNA damage stimulation; also recorded: did not sensitize cells to IR"}
    ]}
  ]
}
